What was measured:
[1] = system: DENV3 envelope structural protein; experiment: DENV-specific sandwich ELISA on treated DENV3 (antigenicity); type: binding, dengue virus 3; settings: H2O2 0.01%, range of CuCl2 and FeCl3 concentrations
DENV4 = type: cell-based, dengue virus serotype 4
[2] = system: DENV4 envelope structural protein; experiment: DENV-specific sandwich ELISA on treated DENV4 (antigenicity); type: binding, dengue virus serotype 4; settings: for DENV4 antigenicity in the dual-oxidation system (ELISA): H2O2 0.01%, CuCl2 1 μM, each compound 10 μM, 20 hrs post-inactivation; for DENV4 antigenicity (retained neutralizing epitopes, ELISA): treated 20 hours at room temperature (FIG. 19B)
[3] = human, in vivo, 152 mg/kg; cited from earlier work
smallpox = settings: in vivo; cited from earlier work
vaccinia virus = type: cell-based; settings: added to H2O2 0.002%, CuCl2 1 μM; MZ 10 μM; PBS pH 7.5
Listeria monocytogenes = Listeria monocytogenes inactivation (CFU/mL); type: cell-based; settings: added to H2O2 0.10%, CuCl2 10 μM; MZ 100 μM
[4] = system: CHIKV E1 and E2 structural proteins; experiment: CHIKV-specific sandwich ELISA with two neutralizing monoclonal antibodies (antigenicity); type: binding, Chikungunya virus; settings: for CHIKV antigenicity (retained neutralizing epitopes, ELISA): treated 20 hours at room temperature (FIG. 19A)
CHIKV = type: cell-based, Chikungunya virus
C. coli [5] = experiment: Campylobacter coli inactivation kinetics (viable bacteria, CFU/mL); type: cell-based; settings: added to H2O2 0.01%, CuCl2 2 μM; MZ 20 μM
Shigella dysenteriae = Shigella dysenteriae inactivation (CFU/mL); type: cell-based; settings: added to H2O2 0.10%, CuCl2 10 μM; MZ 100 μM
DENV2 = DENV2 inactivation kinetics at increasing total viral protein (PFU assay); type: cell-based, dengue virus 2; settings: 3% H2O2, or 0.01% H2O2 and 1 μM CuCl2, room temperature
[6] = system: YFV envelope structural protein
C. coli [7] = experiment: Campylobacter morphology after inactivation (Gram safranin stain); parameters: species or system Campylobacter coli; settings: 3% H2O2 for 5 hours at room temperature, or dual oxidation

[Cl][Fe]([Cl])[Cl] [FeCl3]
DENV3 antigenicity with combinations of CuCl2 and FeCl3 (ELISA) [1]: enhanced antigenicity

NNC(N)=S [thiosemicarbazide]
DENV4 inactivation in the dual-oxidation system (plaque assay) (DENV4): enhancement of inactivation | DENV4 antigenicity in the dual-oxidation system (ELISA) [2]: superior antigenicity

NNC(N)=O [semicarbazide]
DENV4 inactivation in the dual-oxidation system (plaque assay) (DENV4): do not appear to increase the rate of inactivation | DENV4 antigenicity in the dual-oxidation system (ELISA) [2]: protection of protein antigens from oxidative damage

CCCN1C(=O)C(=NNC(N)=S)c2ccccc21 [N-propylisatin β-thiosemicarbazone]
DENV4 inactivation in the dual-oxidation system (plaque assay) (DENV4): enhanced rates of inactivation | DENV4 antigenicity in the dual-oxidation system (ELISA) [2]: superior antigenicity

NC(=S)NN=C1C(=O)Nc2ccccc21 [isatin β-thiosemicarbazone]
DENV4 inactivation in the dual-oxidation system (plaque assay) (DENV4): enhanced rates of inactivation | DENV4 antigenicity in the dual-oxidation system (ELISA) [2]: superior antigenicity

CN1C(=O)/C(=N\NC(N)=S)c2ccccc21 [methisazone, N-methylisatin β-thiosemicarbazone]
serious adverse events [3]: lack of serious adverse events | close contacts who developed mild smallpox (smallpox): 0.27% | close contacts who developed mild smallpox (cases/contacts) (smallpox): 3/1101 | deaths among close contacts (smallpox): no deaths | non-vaccinated subjects who contracted smallpox (smallpox): 2% | non-vaccinated subjects who contracted smallpox (cases/subjects) (smallpox): 2/102 | rate of dual-oxidation-based inactivation, vaccinia virus (vaccinia virus): substantially increase the rate | inactivation rate of Listeria monocytogenes (Listeria monocytogenes): substantially enhanced inactivation rates | DENV4 inactivation in the absence of copper (DENV4): minimal impact | increase of the rate of inactivation vs dual oxidation alone, DENV4 (DENV4): 10- to 20 fold | rate of dual-oxidation-based inactivation, DENV4 (DENV4): substantially increase the rate | CHIKV retained antigenicity with increasing methisazone relative to the transition metal ([4]; H2O2 0.02%, CuCl2 1 μM, ELISA at 20 hrs): concomitant improvements | CHIKV antigenicity (retained neutralizing epitopes, ELISA) [4]: maintained or significantly improved antigenicity | CHIKV inactivation in the absence of copper (CHIKV): minimal impact | CHIKV inactivation rates with increasing methisazone relative to the transition metal (CHIKV): concomitant improvements | increase of the rate of inactivation vs dual oxidation alone, CHIKV (CHIKV): 10- to 20 fold | rate of dual-oxidation-based inactivation, CHIKV (CHIKV): substantially increase the rate | DENV4 antigenicity (retained neutralizing epitopes, ELISA) [2]: maintained or significantly improved antigenicity | inactivation rate of Campylobacter coli (C. coli [5]): substantially enhanced inactivation rates | inactivation rate of Shigella dysenteriae (Shigella dysenteriae): substantially enhanced inactivation rates

O=C1Nc2ccccc2C1=O [isatin]
DENV4 inactivation in the dual-oxidation system (plaque assay) (DENV4): do not appear to increase the rate of inactivation | DENV4 antigenicity in the dual-oxidation system (ELISA) [2]: protection of protein antigens from oxidative damage

OO [3% H2O2, hydrogen peroxide]
dependence of virus inactivation kinetics on total viral protein concentration (DENV2): protein concentration-independent | antigenicity, in vitro potency testing using envelope-specific MAbs ([4]; 3% H2O2 under standard conditions (7 hours, room temperature)): nearly complete loss of antigenicity | CHIKV antigenicity (retained neutralizing epitopes, ELISA) [4]: loss of neutralizing epitopes | YFV antigenicity (neutralizing epitopes) [6]: severe damage to neutralizing epitopes | DENV4 antigenicity (retained neutralizing epitopes, ELISA) [2]: loss of neutralizing epitopes | bacterial morphology after inactivation (C. coli [7]): substantially damaged with clear changes in morphology
